Reference: patent US12643882B2, “Inhibitors of human respiratory syncytial virus and metapneumovirus” (priority 2022, dated 2026)
pEC50: −log10 of the molar value. Like-named read-outs stand apart in the source and are kept apart here.

Legend:
[1] = system: RSV-A2-GFP virus; experiment: microbe, parasite or virus in culture; format: cell-based, Human Respiratory Syncytial Virus
Method in brief: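 IC50 (GFP-expressing cell counts by Acumen imaging) and CC50 (same-well CellTiter-Glo) were obtained by 4-parameter logistic fitting. Compounds were tested in 10-point 3-fold series for 96 h at 37° C, 5% CO2. Thawed Calu-1 ARF cells were infected at MOI 1.2 with GFP-reporter RSV-A2 in 2% FBS DMEM.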

[2] = system: hMPV-GFP virus; experiment: microbe, parasite or virus in culture; format: cell-based, human metapneumovirus
Method in brief: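 Antiviral IC50 was derived from imaging counts of GFP-expressing cells, with CC50 from a same-well CellTiter-Glo read, both by 4-parameter logistic fitting. VERO cells plus hMPV-GFP (MOI 1.25) were exposed 48 h at 37 °C to 10-point 3-fold compound dilutions (typical final 40,300–2 nM).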

[3] = Calu-1 cells infected with RSV-A2-GFP, 96 hrs, GFP-expressing cells counted, read-out: RSV EC50
[4] = VERO cells infected with hMPV-GFP, 48 hrs, GFP-expressing cells counted, read-out: hMPV EC50
[5] = human respiratory syncytial virus, Calu-1, 96 h, read-out: RSV EC50, Calu-1 cells infected with RSV-A2-GFP, 96 hrs, GFP-expressing cells counted
[6] = human metapneumovirus, Vero, 48 h, read-out: hMPV EC50, VERO cells infected with hMPV-GFP, 48 hrs, GFP-expressing cells counted
[7] = read-out: RSV EC50, Calu-1 cells infected with RSV-A2-GFP, 96 hrs, GFP-expressing cells counted
[8] = read-out: hMPV EC50, VERO cells infected with hMPV-GFP, 48 hrs, GFP-expressing cells counted

## Cc1nc(-c2ncccn2)sc1C(=O)N1C[C@@H]2[C@H](C1)[C@H]2Oc1cc(C(C)(C)N)cc(-c2ccc(C(F)(F)F)cc2)n1 [Example 27, ((1R,5S,6s)-6-((4-(2-aminopropan-2-yl)-6-(4-(trifluoromethyl)phenyl)pyridin-2-yl)oxy)-3-azabicyclo[3.1.0]hexan-3-yl)(4-methyl-2-(pyrimidin-2-yl)thiazol-5-yl)methanone]
[1]; [3]
  pEC50: > 8.00
[2]; [4]
  pEC50: 7.00 to 8.00

## Cc1nn(-c2ncccn2)cc1C(=O)N1C[C@@H]2[C@H](C1)[C@H]2Oc1cc(C(C)(C)N)c(F)c(-c2ccc(F)cc2)n1 [Example 119, ((1R,5S,6s)-6-((4-(2-aminopropan-2-yl)-5-fluoro-6-(4-fluorophenyl)pyridin-2-yl)oxy)-3-azabicyclo[3.1.0]hexan-3-yl)(3-methyl-1-(pyrimidin-2-yl)-1H-pyrazol-4-yl)methanone]
[1]; [5]
  pEC50: > 8.00
[2]; [6]
  pEC50: < 7.00

## Cc1nn(-c2ncccn2)cc1C(=O)N1C[C@@H]2[C@H](C1)[C@H]2Oc1cc(C(C)(C)N)cc(-c2ccc(C(F)(F)F)cc2)n1 [Example 86, ((1R,5S,6s)-6-((4-(2-aminopropan-2-yl)-6-(4-(trifluoromethyl)phenyl)pyridin-2-yl)oxy)-3-azabicyclo[3.1.0]hexan-3-yl)(3-methyl-1-(pyrimidin-2-yl)-1H-pyrazol-4-yl)methanone]
[1]; [3]
  pEC50: > 8.00
[2]; [4]
  pEC50: 7.00 to 8.00

## Cc1nc(-c2ncccn2)sc1C(=O)N1C[C@@H]2[C@H](C1)[C@H]2Oc1cc(C(C)(C)N)cc(-c2ccc(F)cc2)n1 [Example 8, ((1R,5S,6s)-6-((4-(2-aminopropan-2-yl)-6-(4-fluorophenyl)pyridin-2-yl)oxy)-3-azabicyclo[3.1.0]hexan-3-yl)(4-methyl-2-(pyrimidin-2-yl)thiazol-5-yl)methanone]
[1]; [5]
  pEC50: > 8.00
[2]; [6]
  pEC50: 7.00 to 8.00

## CC(C)(N)c1cc(O[C@H]2[C@@H]3CN(C(=O)c4sc(-c5ncccn5)nc4C(F)(F)F)C[C@@H]32)nc(-c2ccc(F)cc2)c1 [Example 11, ((1R,5S,6s)-6-((4-(2-aminopropan-2-yl)-6-(4-fluorophenyl)pyridin-2-yl)oxy)-3-azabicyclo[3.1.0]hexan-3-yl)(2-(pyrimidin-2-yl)-4-(trifluoromethyl)thiazol-5-yl)methanone]
[1]; [3]
  pEC50: > 8.00
[2]; [4]
  pEC50: < 7.00

## Cc1nn(-c2ncccn2)cc1C(=O)N1C[C@@H]2[C@H](C1)[C@H]2Oc1cc(C(C)(C)N)cc(N2CCC(C(F)(F)F)CC2)n1 [Example 102, ((1R,5S,6s)-6-((4-(2-aminopropan-2-yl)-6-(4-(trifluoromethyl)piperidin-1-yl)pyridin-2-yl)oxy)-3-azabicyclo[3.1.0]hexan-3-yl)(3-methyl-1-(pyrimidin-2-yl)-1H-pyrazol-4-yl)methanone]
[1]; [3]
  pEC50: > 8.00
[2]; [4]
  pEC50: < 7.00

## Cn1nc(-c2ncccn2)cc1C(=O)N1C[C@H]2[C@H](Oc3cc(C(C)(C)N)cc(-c4ccc(C(F)(F)F)cc4)n3)[C@@]2(C)C1 (single isomer, unassigned; enantiomer 2) [Example 110B]
[1]; [7]
  pEC50: > 8.00
[2]; [8]
  pEC50: < 7.00

## Cc1nn(-c2ncccn2)cc1C(=O)N1C[C@H]2[C@H](Oc3cc(C(C)(C)N)cc(-c4ccc(F)c(F)c4)n3)[C@@]2(C)C1 (single isomer, unassigned; enantiomer 2) [Example 106B]
[1]; [7]
  pEC50: > 8.00
[2]; [8]
  pEC50: 7.00 to 8.00

## Cn1nc(-c2ncccn2)cc1C(=O)N1C[C@H]2[C@H](Oc3cc(C(C)(C)N)cc(-c4ccc(F)c(F)c4)n3)[C@@]2(C)C1 (single isomer, unassigned; enantiomer 2) [Example 105B]
[1]; [7]
  pEC50: > 8.00
[2]; [8]
  pEC50: 7.00 to 8.00

## CCC(N)c1cc(O[C@H]2[C@@H]3CN(C(=O)c4cn(-c5ncccn5)nc4C)C[C@@H]32)nc(-c2ccc(F)cc2)c1 (stereo partly drawn) [Example 117A, ent-((1R,5S,6s)-6-((4-(1-aminopropyl)-6-(4-fluorophenyl)pyridin-2-yl)oxy)-3-azabicyclo[3.1.0]hexan-3-yl)(3-methyl-1-(pyrimidin-2-yl)-1H-pyrazol-4-yl)methanone]
[1]; [3]
  pEC50: > 8.00
[2]; [4]
  pEC50: < 7.00

## Cc1nn(-c2ncccn2)cc1C(=O)N1C[C@H]2[C@H](Oc3cc(C(C)(C)N)cc(-c4ccc(F)cc4)n3)[C@@]2(C)C1 (single isomer, unassigned; enantiomer 2) [Example 107B]
[1]; [7]
  pEC50: > 8.00
[2]; [8]
  pEC50: < 7.00

## Cc1ccnc(-n2cc(C(=O)N3C[C@@H]4[C@H](C3)[C@H]4Oc3cc(C(C)(C)N)cc(-c4ccc(F)cc4)n3)c(C)n2)n1 [Example 72, ((1R,5S,6s)-6-((4-(2-aminopropan-2-yl)-6-(4-fluorophenyl)pyridin-2-yl)oxy)-3-azabicyclo[3.1.0]hexan-3-yl)(3-methyl-1-(4-methylpyrimidin-2-yl)-1H-pyrazol-4-yl)methanone]
[1]; [3]
  pEC50: > 8.00
[2]; [4]
  pEC50: < 7.00

## Cc1nn(-c2ncccn2)c(F)c1C(=O)N1C[C@@H]2[C@H](C1)[C@H]2Oc1cc(C(C)(C)N)cc(-c2ccc(F)cc2)n1 [Example 79, ((1R,5S,6s)-6-((4-(2-aminopropan-2-yl)-6-(4-fluorophenyl)pyridin-2-yl)oxy)-3-azabicyclo[3.1.0]hexan-3-yl)(5-fluoro-3-methyl-1-(pyrimidin-2-yl)-1H-pyrazol-4-yl)methanone]
[1]; [5]
  pEC50: > 8.00
[2]; [6]
  pEC50: < 7.00

## Cc1nc(-c2ncccn2)sc1C(=O)N1C[C@@H]2C(Oc3cc(C(C)(C)N)cc(C4=CCC(C)CC4)n3)[C@@H]2C1 (mixture of isomers) [Example 46, rac-((1R,5S,6s)-6-((4-(2-aminopropan-2-yl)-6-(4-methylcyclohex-1-en-1-yl)pyridin-2-yl)oxy)-3-azabicyclo[3.1.0]hexan-3-yl)(4-methyl-2-(pyrimidin-2-yl)thiazol-5-yl)methanone]
[1]; [3]
  pEC50: > 8.00
[2]; [4]
  pEC50: < 7.00

## Cc1nc(-c2ncccn2)sc1C(=O)N1C[C@@H]2[C@H](C1)[C@H]2Oc1cc(C(C)(C)N)cc(-c2ccc(OC(F)F)cc2)n1 [Example 24, ((1R,5S,6s)-6-((4-(2-aminopropan-2-yl)-6-(4-(difluoromethoxy)phenyl)pyridin-2-yl)oxy)-3-azabicyclo[3.1.0]hexan-3-yl)(4-methyl-2-(pyrimidin-2-yl)thiazol-5-yl)methanone]
[1]; [3]
  pEC50: > 8.00
[2]; [4]
  pEC50: 7.00 to 8.00

## CC(C)(N)c1cc(O[C@H]2[C@@H]3CN(C(=O)c4cn(-c5ncccn5)nc4CCF)C[C@@H]32)nc(-c2ccc(F)cc2)c1 [Example 131, ((1R,5S,6s)-6-((4-(2-aminopropan-2-yl)-6-(4-fluorophenyl)pyridin-2-yl)oxy)-3-azabicyclo[3.1.0]hexan-3-yl)(3-(2-fluoroethyl)-1-(pyrimidin-2-yl)-1H-pyrazol-4-yl)methanone]
[1]; [5]
  pEC50: > 8.00
[2]; [6]
  pEC50: < 7.00

## Cc1nn(-c2ncccn2)cc1C(=O)N1C[C@@H]2[C@H](C1)[C@H]2Oc1cc(C(C)(C)N)cc(N2CCC(C(F)(F)F)CC2C)n1 (stereo partly drawn) [Example 129A, ent-((1R,5S,6s)-6-((4-(2-aminopropan-2-yl)-6-(2-methyl-4-(trifluoromethyl)piperidin-1-yl)pyridin-2-yl)oxy)-3-azabicyclo[3.1.0]hexan-3-yl)(3-methyl-1-(pyrimidin-2-yl)-1H-pyrazol-4-yl)methanone]
[1]; [3]
  pEC50: > 8.00
[2]; [4]
  pEC50: < 7.00
